This note sets out measurements from ChEMBL document CHEMBL1777678, “2,4-diarylthiazole antiprion compounds as a novel structural class of antimalarial leads” (Bioorg Med Chem Lett, 2011).

The nature of data set [1]: Cytotoxicity against mouse SMB cells up to 20 uM. In kind it is cell-based.
Data set [2] has as its system Plasmodium falciparum. In words: Antimalarial malarial activity against chloroquine-resistant Plasmodium falciparum K1 infected in human A positive erythrocytes assessed as inhibition of [3H]hypoxanthine incorporation after 24 hrs. In kind it is functional, organism-based.
The test system of data set [3] is Plasmodium falciparum. In words: Antimalarial malarial activity against chloroquine-sensitive Plasmodium falciparum 3D7 infected in human A positive erythrocytes assessed as inhibition of [3H]hypoxanthine incorporation at 19.3 ug/ml after 24 hrs. Type of data set: functional, organism-based.
Data set [4] can be described thus: Antiprion activity against Chandler strain of sheep scrapie prion protein infected in mouse SMB cells assessed as clearance of disease-associated scrapie prion protein. Type of data set: cell-based, Ovis aries.
Data set [5] concerns Plasmodium falciparum. In words: Antimalarial malarial activity against chloroquine-sensitive Plasmodium falciparum 3D7 infected in human A positive erythrocytes assessed as inhibition of [3H]hypoxanthine incorporation after 24 hrs. Type of data set: functional, organism-based.
The subject of data set [6] is Plasmodium falciparum. In words: Antimalarial malarial activity against chloroquine-resistant Plasmodium falciparum K1 infected in human A positive erythrocytes assessed as inhibition of [3H]hypoxanthine incorporation 10 ug/ml after 24 hrs. In kind it is functional, organism-based.
Setting [7] is: Ovis aries, SMB, read-out: EC50.

The source made the active and inactive calls. No cut-off for these calls is given here.

Turning to `CCN(CC)CCNC(=O)c1sc(-c2ccc(OC)cc2)nc1-c1ccccc1`, in data set [1], the Activity entry is given as “Non-toxic”. Besides, in the data set on Plasmodium falciparum [2], the half-inhibitory concentration (IC50) came to 7.7 µM. The inhibition result in the data set with Plasmodium falciparum [3] was “inactive”. The EC50 in data set [4] (setting [7]) was found to be 4 µM.

`CCN(CC)CCNC(=O)c1sc(-c2ccccc2)nc1-c1ccccc1`: the Activity entry in data set [1] is “Non-toxic”. In the data set with Plasmodium falciparum [2], the half-maximal inhibitory concentration (IC50) was 0.71 µM. For the same compound, the inhibition result with Plasmodium falciparum [3] is “inactive”. In addition, the concentration giving a half-maximal response (EC50) in data set [4] (setting [7]) was found to be 4.9 µM.

Take `CCN(CC)CCCC(C)Nc1ccnc2cc(Cl)ccc12` (stereo not drawn) [CHLOROQUINE]: the concentration for a half-maximal effect (EC50) in data set [4] (setting [7]) was 2.3 µM.

Consider `CCN(CC)CCCC(C)NC(=O)c1sc(-c2ccccc2)nc1-c1ccccc1` (stereo not drawn), for which, in data set [1], the Activity entry was “Non-toxic”. In addition, the IC50 with Plasmodium falciparum [2] amounted to 3.8 µM; in the data set on Plasmodium falciparum [5], 9.5 µM. The EC50 in data set [4] (setting [7]) stood at 2.9 µM.

With `CCN(CC)CCNC(=O)c1sc(-c2cccnc2)nc1-c1ccccc1`, in data set [1], the Activity result is “Non-toxic”. For the same compound, in the data set on Plasmodium falciparum [2], the IC50 stood at 5.3 µM. Also, in the data set on Plasmodium falciparum [3], the inhibition result is “inactive”. In data set [4] (setting [7]), the EC50 worked out at 20 µM.

`CCN(CC)CCNC(=O)c1sc(-c2cccs2)nc1-c1ccccc1`: in data set [1], the Activity result was “Non-toxic”. Moreover, the half-maximal inhibitory concentration (IC50) came to 4.4 µM with Plasmodium falciparum [2] and 13.8 µM in the data set with Plasmodium falciparum [5]. The half-maximal effective concentration (EC50) in data set [4] (setting [7]) was found to be 6.7 µM.

On to `O=C(c1sc(-c2ccccc2)nc1-c1ccccc1)N1CCC(N2CCCCC2)CC1`, for which, in data set [1], the Activity result was “Non-toxic”. The IC50 in the data set with Plasmodium falciparum [2] is 0.83 µM; with Plasmodium falciparum [5], 20.2 µM. Further, in data set [4] (setting [7]), the EC50 was determined as 1.9 µM.

For the compound `CN(C)CCNC(=O)c1sc(-c2ccccc2)nc1-c1ccccc1`, the Activity result in data set [1] is “Toxic”. Besides, the IC50 in the data set on Plasmodium falciparum [2] was 8.8 µM. In addition, the inhibition result with Plasmodium falciparum [3] is “inactive”. Also, the EC50 in data set [4] (setting [7]) amounted to 4.8 µM.

Take `CCN(CC)CCCNC(=O)c1sc(-c2ccccc2)nc1-c1ccccc1`: the Activity entry in data set [1] is “Non-toxic”. In addition, the IC50 worked out at 13.3 µM with Plasmodium falciparum [2] and 1 µM in the data set with Plasmodium falciparum [5]. In addition, in data set [4] (setting [7]), the half-maximal effective concentration (EC50) was determined as 2.3 µM.

`O=C(NCCN1CCCC1)c1sc(-c2ccccc2)nc1-c1ccccc1`: the Activity result in data set [1] is listed as “Toxic”. For the same compound, the IC50 with Plasmodium falciparum [2] is 14.9 µM. The inhibition entry with Plasmodium falciparum [3] was “inactive”. Also, the concentration giving a half-maximal response (EC50) in data set [4] (setting [7]) amounted to 10.7 µM.

With `O=C(c1sc(-c2ccccc2)nc1-c1ccccc1)N1CCC(N2CCCC2)CC1`, the Activity entry in data set [1] is “Non-toxic”. The values for the IC50 with Plasmodium falciparum [2] and with Plasmodium falciparum [5] were 6.2 µM and 12 µM, respectively. In data set [4] (setting [7]), the EC50 is 5.5 µM.

Turning to `O=C(NCCN1CCOCC1)c1sc(-c2ccccc2)nc1-c1ccccc1`, the Activity result in data set [1] is reported as “Non-toxic”. The inhibition entry in the data set with Plasmodium falciparum [3] and in the data set on Plasmodium falciparum [6] was “inactive” in each case. For the same compound, the EC50 entry in data set [4] (smb) is given as “Not Active”.

In the case of `O=C(NCc1ccccn1)c1sc(-c2ccccc2)nc1-c1ccccc1`, the Activity result in data set [1] was “Non-toxic”. The IC50 with Plasmodium falciparum [2] was 15 µM; with Plasmodium falciparum [5] it was 19.7 µM. The EC50 result in data set [4] (smb) is “Not Active”.

Consider `O=C(NCCCn1ccnc1)c1sc(-c2ccccc2)nc1-c1ccccc1`, for which the Activity entry in data set [1] was “Non-toxic”. Further, the half-inhibitory concentration (IC50) with Plasmodium falciparum [2] is 11.5 µM; in the data set on Plasmodium falciparum [5], 13.9 µM. The EC50 entry in data set [4] (smb) is recorded as “Not Active”.
